Test system: cultured human trabecular meshwork (HTM) cells
Assay: HTM cell spreading on fibronectin III7-10 coated coverslips, immunofluorescence microscopy
Format: cell-based
Procedure: A cultured human trabecular meshwork (HTM) diploid cell strain obtained from trabecular meshwork explants was serum-starved for twenty-four hours and then plated on 12 mm round glass coverslips (Bellco Glass, Inc.; Vineland, N.J.) coated with III7-10 domains of fibronectin (RGD cell-binding domain; 236 nM) for three hours at 37° C., 95% humidity, 5% CO2, ambient air. The cells were exposed to either DMSO (control) or an ILK inhibitor with or without 472 nM of the Hep II domain. Following incubation, cells were fixed for immunofluorescence microscopy by methods known to a skilled artisan.
HTM cells were examined by immunofluorescence microscopy using anti-vinculin (1:3000; Sigma-Aldrich; St. Louis, Mo.), anti-ILK (1:1000; Upstate Group, LLC; Charlottesville, Va.), anti-talin (1:1000; Chemicon; Temecula, Calif.), anti-paxillin (1:1000; BD Biosciences; San Jose, Calif.) or anti-FAK (1:1000; BD Biosciences) antibodies to reveal actin stress fibers and focal adhesions. […] Cell images were acquired with a Zeiss AxioCam HRm camera mounted on a Zeiss Axiophan 2 Imaging fluorescence microscope together with AxioVision v.3.1 software. The percentage of spread cells was determined by counting polygonal cells containing stress fibers (spread cells) versus rounded cells lacking stress fibers (non-spread cells) from eight to twelve fields.

## O=c1cc(N2CCOCC2)oc2c(-c3ccccc3)cccc12 [LY29400]
LY29400 25 μM added to ILK inhibitor plus soluble Hep II domain 472 nM, p<0.008
  percentage of spread cells: 28%
Administered alone, compared to control cells, p<0.2
  percentage of spread cells: 35%

Reference: patent US7479277B2, “Method for reducing intraocular pressure using integrin-linked kinase inhibitor” (Wisconsin Alumni Research Foundation, priority 2005, dated 2009)
